Measured values published in US10370425B2, “Peptide antagonists of the calcitonin CGRP family of peptide hormones and their use” (priority 2012, dated 2019).
Positions of bridges follow the written chain, without caps; N, C: chain ends. Residues, ends and D or L forms follow the SMILES beside them.

Target: T1, amylin receptor, AMY1, a CT (calcitonin) receptor/RAMP1 (receptor-activity modifying protein) complex (Homo sapiens, UniProt O60894+P30988)
T1 construct: host or cells: CHO-K1/AMY1/Gα15
Assay: Calcium flux assay (FLIPR Calcium 4) of inhibition of α-CGRP stimulation in CHO-K1/AMY1/Gα15 cells
Assay type: cell-based
Details: at maximal test concentration (series starts with 1 μM); CHO-K1/AMY1/Gα15 cells stimulated with 32 nM (EC80) α-CGRP; n = 2; read-out: % Inhibition @ Maximal concentration (Mean +/− SD, n = 2)
Method: Using a calcium flux assay, the dose-dependent inhibitory response of peptide antagonists of the present invention on an amylin receptor, AMY1, a CT (calcitonin) receptor/RAMP1 (receptor-activity modifying protein) complex was determined. The recombinant cell line CHO-K1/AMY1/Gα15 (GenScript, Piscataway, N.J., Catalog No. M00475) was employed in the assay. Peptide antagonist activities were tested, in duplicate, at five different concentrations, starting with 1 μM and serially diluted five-fold, in DMSO. AC187 (SEQ ID NO: 55), a known amylin receptor antagonist (available for example from Tocris Bioscience, Minneapolis, Minn., Catalog No. 3419) was used as a positive control in the assays, and human α-CGRP, a known amylin receptor agonist (SEQ ID NO:56) , (available for example from Tocris Bioscience, Minneapolis, Minn., Catalog No. 3012) was used as a positive control in the assays. The FLIPR® Calcium 4 Assay Kit (Molecular Devices, Sunnyvale, Calif.) was used.
Human α-CGRP having the amino acid sequence, NH2-[…]-NH2 (SEQ ID NO:56) and AC187 having the sequence […] (SEQ ID NO: 55) were employed as negative and positive controls, respectively. Stock solutions were further diluted in HBSS-HEPES buffer to make 5×final control solutions.
CHO-K1/AMY1/Gα15 cells were seeded in a 384-well black wall, clear bottom plate at a density of 20,000 cells/well in 20 μL of growth medium 20 hours prior to the day of the experiment and maintained at 37° C./5% CO2.
Per the assay kit protocol, dye-loading solution (at 2×final concentration) was added into the assay plate, 20 μL per well. Compound solution (at 5 ×final concentration) was added into the assay plate, 10 uL per well. The assay plate was placed into a 37° C. incubator for 1 hour, then left for 15 min at RT. The agonist plate (at 5×EC80 concentration) was placed in Source 2. The total reading time was 120 sec. The agonist was added after 20 seconds reading of the baseline and the fluorescence signal was captured for another 100 seconds (21 s to 120 s).
In screening, cells stimulated with assay buffer were chosen as the background; cells stimulated with agonist (at […] concentration) were chosen as the negative control.
Data were recorded by ScreenWorks (version 3.1) as FMD files and stored on the GenScript computer network for off-line analysis. Data acquisition and analyses was performed using ScreenWorks (version 3.1) program and exported to Excel. The average value of 20 (1 s to 20 s) seconds reading was calculated as the baseline reading and the relative fluorescent units (ΔRFU) intensity values were calculated with the maximal fluorescent units (21 s to 120 s) subtracting the average value of baseline reading.
The IC50 value of AC187 was 8 μM. The inhibitory activity of the tested peptide antagonists was normalized with the negative control (AC187) and reported as % Inhibition, calculated from the following equation: % Inhibition=(ΔRFUcompound−ΔRFUBackground)/(ΔRFUNegative control−ΔRFUBackground) * 100% Inhibition was then plotted along the Y-axis, with the test concentrations as indicated on the X-axis. The peptides were tested at indicated concentrations and stimulated with 32 nM (EC80) α-CGRP (Mean +/− SD, n=2).

T1 sequence (P30988 25-474): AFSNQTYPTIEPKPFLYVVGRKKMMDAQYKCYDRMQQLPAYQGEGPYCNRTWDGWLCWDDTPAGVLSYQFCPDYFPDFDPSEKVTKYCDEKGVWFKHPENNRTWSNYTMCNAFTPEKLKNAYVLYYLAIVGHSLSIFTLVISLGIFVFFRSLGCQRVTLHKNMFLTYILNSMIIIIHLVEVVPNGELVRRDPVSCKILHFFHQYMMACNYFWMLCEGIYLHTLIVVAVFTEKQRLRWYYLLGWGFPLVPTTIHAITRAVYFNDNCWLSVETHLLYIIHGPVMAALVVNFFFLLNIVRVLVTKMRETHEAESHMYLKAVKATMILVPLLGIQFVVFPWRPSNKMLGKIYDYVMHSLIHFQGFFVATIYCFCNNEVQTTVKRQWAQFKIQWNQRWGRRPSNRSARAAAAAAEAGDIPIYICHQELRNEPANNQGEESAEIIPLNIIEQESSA
T1 sequence (O60894 27-148): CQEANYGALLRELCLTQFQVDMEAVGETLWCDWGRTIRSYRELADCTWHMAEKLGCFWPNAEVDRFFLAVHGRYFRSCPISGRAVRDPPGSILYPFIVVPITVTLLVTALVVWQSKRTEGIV

CC(C)C[C@@H]1NC(=O)[C@H](C)NC(=O)[C@H]([C@@H](C)O)NC(=O)[C@H](CC(=O)O)NC(=O)[C@@H](NC(=O)[C@H](C)N)CSSC[C@@H](C(=O)N[C@H](C(=O)N[C@@H](CC(C)C)C(=O)NCC(=O)N[C@@H](CCCNC(=N)N)C(=O)N[C@@H](CC(C)C)C(=O)N[C@@H](CO)C(=O)N[C@@H](CCC(N)=O)C(=O)N[C@@H](CCC(=O)O)C(=O)N[C@@H](CC(C)C)C(=O)N[C@@H](Cc2c[nH]cn2)C(=O)N[C@@H](CCCNC(=N)N)C(=O)N[C@@H](CC(C)C)C(=O)N[C@@H](CCC(N)=O)C(=O)N[C@H](C(=O)N[C@@H](Cc2ccc(O)cc2)C(=O)N2CCC[C@H]2C(=O)N[C@@H](CCCNC(=N)N)C(=O)N[C@H](C(=O)N[C@@H](CC(N)=O)C(=O)N[C@H](C(=O)NCC(=O)N[C@@H](CO)C(=O)N[C@@H](CCCCN)C(=O)N[C@@H](C)C(=O)N[C@@H](Cc2ccccc2)C(N)=O)C(C)C)[C@@H](C)O)[C@@H](C)O)C(C)C)NC1=O [compound 9] (H-ACDTALCVLGRLSQELHRLQTYPRTNVGSKAF-NH2; disulfide 2-7 (inferred))
inhibition at 1 µM: 95.6%
